Measurements reported in patent publication US20210145772A1, “CAP[…] USE IN TREATING ACRAL LICK GRANULOMA” (Centrexion Therapeutics Corporation, priority 2014, published 2021).
Values joined by “and” are separate entries in the source; they are usually repeats but may differ in a detail not shown here. Equal entries are not always repeated.

Tests used:
Format in all cases: in vivo, dog (canine)
acral lick granuloma [1] = test: Client Specific Outcome Measure (CSOM), owner-scored, in dogs with acral lick granuloma after subcutaneous injection
Protocol: A clinical study was performed to evaluate the effect of injectable capsaicin in treating acral lick granuloma in canines. A total of six dogs suffering from acral lick granuloma were treated using injectable capsaicin and evaluated. Experimental procedures are described in Part I below.
(§1) Six dogs suffering from acral lick granuloma were treated using injectable capsaicin and evaluated.
At a Screening visit, the index lesion was examined. The diagnosis of the index granuloma was made based on characteristics of the lesion and history of licking. Veterinary personnel reviewed with each dog owner the concept and implementation of an Owner-derived efficacy assessment, the Client Specific Outcome Measure (CSOM, based loosely on the CSOM developed for use with osteoarthritis (Gingerich D, and Strobel J. in “Use of client-specific outcome measures to assess treatment effects in geriatric, arthritic dogs: Controlled clinical evaluation of a nutraceutical,” Vet. Ther. (2003) vol. 4, pages 56-66)), to assess the severity and progression of licking behavior associated with the acral lick granuloma. Up to three activities were identified and scored relative to their state prior to the acral lick granuloma (1-no problem, 2-mildly problematic, 3-moderately problematic, 4-severely problematic, 5-impossible). The CSOM assessment was completed at Screening Day (i.e., seven days before administration of capsaicin, also referred to as Day −7), Day 0, Day 14 (±2), and Day 28 (±3) until study termination.
(§2) After the screening visit, the dog returned to the site on Day 0 for injection with Study Drug. As a general procedure, dogs were anesthetized using a short-acting anesthetic protocol before injection of the Study Drug. If propofol was used, it was used for induction prior to gas anesthesia but not as a drip to maintain anesthesia. The area to be injected with Study Drug was prepared using site disinfection procedures that are routinely used at veterinary hospital.
(§3) The Study Drug was trans-capsaicin in a solution of polyethylene glycol 300 (PEG 300) and water for injection. The Study Drug was prepared by diluting (i) a solution of PEG 300 containing trans-capsaicin at a concentration of 2 mg/mL (hereinafter “Solution A”) with (ii) sterile water for injection. Solution A was diluted with a volume of sterile water for injection (WFI) in an amount equal to 4 to 5-fold to produce the Study Drug.
(§4) Study Drug was administered to the dog by subcutaneous injection at several locations under the index acral lick granuloma. The goal of the injection was to infiltrate the Study Drug at the junction between the granuloma and healthy tissue throughout the area of the lesion. The dose of trans-capsaicin per lesion to be administered was approximately 1.5 μg of trans-capsaicin per mm^2 of lesion. Each lesion to be injected was measured (mm) for long axis (length) and short axis (width). The approximate surface area was calculated based on an elliptical shape. Based on the calculated lesion areas, the calculated dose of trans-capsaicin per lesion ranged from <0.10 mg to 2.65 mg of trans-capsaicin. Dog reactions during and immediately after the injection procedure were recorded in the study records. Injections of Study Drug were performed using a 22 gauge needle.
As noted above, the severity of licking behavior caused by the acral lick granuloma was measured by the owner using a modification of a previously published system (Gingerich and Strobel 2003 noted above). During Screening, dog owners were interviewed by veterinary personnel trained in CSOM assessments (e.g., Study Coordinator) to identify one to three activities that have changed as a result of the acral lick granuloma. Activities focused on the use of the limb(s) with the index lesion and on behavioral responses. For example, excessive licking of the granuloma would be a behavioral response. […]

acral lick granuloma [2] = test: Lesion size: measured long and short axis, surface area approximated as an ellipse
Protocol: as §1, §2, §3, §4
(§5) Physical examinations of the dog including the injection site observation were conducted. General and dermatologic exams, including a description, measurements (dimensions), and digital photograph of the index lesion were collected.
(§6) An illustration of the lesion(s) from each dog prior to injection with Study Drug are provided in FIG. 1, along with illustrations of the lesions from each dog at Day 14 and separately at Day 28 of the study. FIG. 2 provides illustrations of the lesions from each dog prior to injection of Study Drug, at Day 14 of the study, and at Day 28 of the study, where the lesion is traced for Adobe Acrobat IX determination of lesion area.

acral lick granuloma [3] = test: Lesion surface area from traced lesion photographs (Adobe Acrobat measurement tool)
From the text: FIG. 2 provides illustrations of the lesion(s) from each dog prior to injection of Study Drug, at Day 14, and at Day 28 of the study, where the lesion is traced for Adobe Acrobat IX determination of lesion area, as further described in Example 1 herein.
as §2, §3, §4, §5, §6

[4] = individual lesion of individual dog

With COc1cc(CNC(=O)CCCC/C=C/C(C)C)ccc1O [Study Drug, trans-capsaicin] the “CSOM Day 14 (sum of identified activities)” value (acral lick granuloma [1]; average of six dogs) was 4.8, the “CSOM Day 28 (sum of identified activities)” value (acral lick granuloma [1]; average of six dogs) was 6.3 and the “CSOM Delta Day 14-baseline” value (acral lick granuloma [1]; average of six dogs) was −3.0. The “CSOM Delta Day 28-baseline” value (acral lick granuloma [1]; average of six dogs) was −1.5, the “CSOM Percent Change to Day 14” value (acral lick granuloma [1]; average of six dogs) was −41% and the “CSOM Percent Change to Day 28” value (acral lick granuloma [1]; average of six dogs) was −26%. For the same compound, the “benefit to dogs suffering from acral lick granuloma as indicated by CSOM results” value (acral lick granuloma [1]; conclusion in words) was “provided a benefit”, the “CSOM Delta Day 14-baseline” value (acral lick granuloma [1]; individual dog) was −1 (2×) and −2 and −6 and −4 (2×) and the “CSOM Delta Day 28-baseline” value (acral lick granuloma [1]; individual dog) was −1 and 2 (2×) and −4 (3×). The “CSOM Day 14 (sum of identified activities)” value (acral lick granuloma [1]; individual dog, Day 14 after s.c. injection, approx. 1.5 μg trans-capsaicin per mm^2 of lesion) was 1 and 7 and 9 and 6 and 2 and 4, the “CSOM Day 28 (sum of identified activities)” value (acral lick granuloma [1]; individual dog, Day 28 after s.c. injection) was 1 and 11 and 12 and 8 and 2 and 4 and the “CSOM Percent Change to Day 14” value (acral lick granuloma [1]; individual dog, vs baseline) was −50% (3×) and −22% and −10% and −67%. For the same compound, the “CSOM Percent Change to Day 28” value (acral lick granuloma [1]; individual dog, vs baseline) was −50% (2×) and 22% and 20% and −33% and −67%, the “average reduction in CSOM at Day 14 compared with baseline” value (acral lick granuloma [1]; six dogs) was 41% and the “average reduction in CSOM at Day 28 compared with baseline” value (acral lick granuloma [1]; six dogs) was 26%. The “Lesion surface area (ellipse) Delta Day 14-baseline” value (acral lick granuloma [2]; average of 13 lesions) was 49, the “Lesion surface area (ellipse) Delta Day 28-baseline” value (acral lick granuloma [2]; average of 13 lesions) was 200 and the “Lesion surface area (ellipse) Percent Change to Day 14” value (acral lick granuloma [2]; average of 13 lesions) was 6%. The “Lesion surface area (ellipse) Percent Change to Day 28” value (acral lick granuloma [2]; average of 13 lesions) was 15%, the “Lesion surface area Day 14 (approximation of an ellipse)” value (acral lick granuloma [2]; average of 13 lesions) was 533 sq mm and the “Lesion surface area Day 28 (approximation of an ellipse)” value (acral lick granuloma [2]; average of 13 lesions) was 684 sq mm. For the same compound, the “Lesion surface area (ellipse) Delta Day 14-baseline” value (acral lick granuloma [2]; individual lesion) was −55 and 291 and 0 and −63 and 163 and 329 and −188 and −115 and 57 and −48 and 263 and 55 and −51, the “Lesion surface area (ellipse) Delta Day 28-baseline” value (acral lick granuloma [2]; individual lesion) was −43 and 134 and −20 and −82 and 734 and 1250 and −75 and 151 and 148 and −7 and 393 and 55 and −39 and the “Lesion surface area (ellipse) Percent Change to Day 14” value (acral lick granuloma [2]; individual lesion) was −100% and 285% and 0% and −76% and 16% and 62% and −47% and −19% and 20% and −14% and 15% and 5% and −65%. For the same compound, the “Lesion surface area (ellipse) Percent Change to Day 28” value (acral lick granuloma [2]; individual lesion) was −79% and 131% and −100% (2×) and 71% and 235% and −18% and 25% and 54% and −2% and 22% and 5% and −50%, the “Lesion surface area Day 14 (approximation of an ellipse)” value (acral lick granuloma [2]; individual lesion) was 0 sq mm and 393 sq mm and 20 sq mm (2×) and 1195 sq mm and 862 sq mm and 216 sq mm and 483 sq mm and 334 sq mm and 292 sq mm and 2030 sq mm and 1060 sq mm and 27 sq mm and the “Lesion surface area Day 28 (approximation of an ellipse)” value (acral lick granuloma [2]; individual lesion) was 12 sq mm and 236 sq mm and 0 sq mm (2×) and 1766 sq mm and 1782 sq mm and 329 sq mm and 749 sq mm and 425 sq mm and 333 sq mm and 2160 sq mm and 1060 sq mm and 39 sq mm. The “Lesion size Day 14-long axis” value (acral lick granuloma [2]; [4]) was 0 mm and 25 mm and 5 mm (2×) and 65.3 mm and 46.5 mm and 18.2 mm and 39.7 mm and 29.7 mm and 25.3 mm and 55 mm and 45 mm and 7 mm, the “Lesion size Day 14-short axis” value (acral lick granuloma [2]; [4]) was 0 mm and 20 mm and 5 mm (3×) and 23.3 mm and 23.6 mm and 15.1 mm and 15.5 mm and 14.3 mm and 14.7 mm and 47 mm and 30 mm and the “Lesion size Day 28-long axis” value (acral lick granuloma [2]; [4]) was 5 mm and 20 mm and 0 mm (2×) and 88.2 mm and 65.2 mm and 23.3 mm and 46.1 mm and 31.1 mm and 20.5 mm and 55 mm and 45 mm and 10 mm. The “Lesion size Day 28-short axis” value (acral lick granuloma [2]; [4]) was 3 mm and 15 mm and 0 mm (2×) and 25.5 mm and 34.8 mm and 18 mm and 20.7 mm (2×) and 17.4 mm and 50 mm and 30 mm and 5 mm, the “Lesion surface area (Adobe Acrobat) Delta Day 14-baseline” value (acral lick granuloma [3]; average of lesions) was −91 and the “Lesion surface area (Adobe Acrobat) Delta Day 28-baseline” value (acral lick granuloma [3]; average of lesions) was 3. For the same compound, the “Lesion surface area (Adobe Acrobat) Percent Change Day 14” value (acral lick granuloma [3]; average of lesions) was −8%, the “Lesion surface area (Adobe Acrobat) Percent Change Day 28” value (acral lick granuloma [3]; average of lesions) was 7% and the “Total Size of Lesion at Day 14 (Adobe Acrobat XI measurement tool)” value (acral lick granuloma [3]; average of lesions) was 462 sq mm. For the same compound, the “Total Size of Lesion at Day 28 (Adobe Acrobat XI measurement tool)” value (acral lick granuloma [3]; average of lesions) was 557 sq mm, the “Lesion surface area (Adobe Acrobat) Delta Day 14-baseline” value (acral lick granuloma [3]; individual lesion) was −4 and −924 and 37 and −146 and 25 and 282 and 290 and −230 and 106 and −103 and 81 and −503 and the “Lesion surface area (Adobe Acrobat) Delta Day 28-baseline” value (acral lick granuloma [3]; individual lesion) was −62 and −924 and 76 and −260 and −136 and 594 and 1062 and −216 and 247 and −48 and 146 and −441. The “Lesion surface area (Adobe Acrobat) Percent Change Day 14” value (acral lick granuloma [3]; individual lesion) was −1% and −100% and 19% and −56% and 18% and 29% and 78% and −73% and 22% and −25% and 39% and −42%, the “Lesion surface area (Adobe Acrobat) Percent Change Day 28” value (acral lick granuloma [3]; individual lesion) was −11% and −100% (3×) and 39% and 61% and 287% and −68% and 52% and −12% and 70% and −37% and the “Total Size of Lesion at Day 14 (Adobe Acrobat XI measurement tool)” value (acral lick granuloma [3]; individual lesion) was 568 sq mm and 0 sq mm and 232 sq mm and 114 sq mm and 161 sq mm and 1252 sq mm and 660 sq mm and 86 sq mm and 579 sq mm and 303 sq mm and 290 sq mm and 704 sq mm. For the same compound, the “Total Size of Lesion at Day 28 (Adobe Acrobat XI measurement tool)” value (acral lick granuloma [3]; individual lesion) was 509 sq mm and 0 sq mm (3×) and 271 sq mm and 1564 sq mm and 1432 sq mm and 100 sq mm and 720 sq mm and 358 sq mm and 355 sq mm and 766 sq mm.
